Tests used:
[1] = Solubility in organic solvents (modified Vogel's method); details: 25 °C
[2] = pKa / pKB by potentiometric acid-base titration and formation constant log(KS); details: calculated from pKA of acid and pKB of base
Procedure: Determination of formation constant pKs
Zabrze, Poland). For the measurement of pKA acids, 0.1 M NaOH was used. In order to
ester hydrochloride, HCl aqueous solution, was added in an amount that allowed reach-
After that, an acid-base titration was made out by adding dropwise 5 mM

[3] = tested on: Staphylococcus epidermidis; assay: Disc diffusion antimicrobial susceptibility test, Staphylococcus epidermidis; format: cell-based; design: key to Inhibition diameter: -: no growth of the organism
Procedure: (§1) The plates were incubated for 24 h at 37 °C.

[4] = Solubility in water and phosphate buffers
Source text: This study aims to compare the influence of amino acid structure on the physicochemical properties of NSAID salts with the isopropyl ester of amino acids.

Escherichia coli = assay: Disc diffusion antimicrobial susceptibility test, Escherichia coli; format: cell-based; design: key to Inhibition diameter: -: no growth of the organism
Procedure: as §1

[5] = Thermogravimetric analysis (thermal stability); details: air atmosphere, 10 °C min−1
Summary of the method: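 Samples of 5–8 mg heated in Al2O3 crucibles under air (25 cm3 min−1) with nitrogen flow (10 cm3 min−1). Start of thermal degradation taken as the onset of the TG curve in the first decomposition phase.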

Micrococcus Luteus = assay: Disc diffusion antimicrobial susceptibility test, Micrococcus luteus; format: cell-based; design: key to Inhibition diameter: -: no growth of the organism
[6] = n-octanol-water partition coefficient (logP), shake flask method; format: physicochemical; details: n-octanol-water, shake flask; read-out: LogP
[7] = solution transferred to disc 25 mg cm^−3
[8] = solution transferred to disc 50 mg cm^−3
[9] = solution transferred to disc 100 mg cm^−3
[10] = solution transferred to disc 200 mg cm^−3
[11] = solution transferred to disc 400 mg cm^−3

CC[C@H](C)[C@H](N)C(=O)OC(C)C.O=C(O)c1ccccc1O [[L-IleOiPr][SA], L-isoleucine isopropyl ester salicylate]
Solubility in Chloroform (39.1) [1]: ○ (soluble >100 mg cm^−3) | Solubility in DMSO (45.1) [1]: ○ (soluble >100 mg cm^−3) | Solubility in Dichloromethane (40.7) [1]: ○ (soluble >100 mg cm^−3) | Solubility in Diethyl Ether (34.5) [1]: ○ (soluble >100 mg cm^−3) | Solubility in Ethanol (59.1) [1]: ○ (soluble >100 mg cm^−3) | Solubility in Ethyl Acetate (38.1) [1]: ○ (soluble >100 mg cm^−3) | Solubility in Hexane (31.0) [1]: ● (insoluble <33 mg cm^−3) | Solubility in Toluene (33.9) [1]: ○ (soluble >100 mg cm^−3) | Log(KS) formation constant [2]: 7.25 | zone of inhibition at 600000 µg/mL ([3]; Staphylococcus epidermidis, 24 h, solution transferred to disc 600 mg cm^−3, read-out: Inhibition diameter): 7.3 ± 0.4 mm | zone of inhibition at 800000 µg/mL ([3]; Staphylococcus epidermidis, 24 h, solution transferred to disc 800 mg cm^−3, read-out: Inhibition diameter): 10.5 ± 0.3 mm | Inhibition diameter [3, 7]: - | Inhibition diameter [3, 8]: - | Inhibition diameter [3, 9]: - | Inhibition diameter [3, 10]: - | Inhibition diameter [3, 11]: - | Solubility in Water, as active substance ([4]; deionized water, 25 °C, AS = unmodified acid): 11.793 ± 0.422 gAS dm^−3 | Solubility in Phosphate Buffer pH = 5.4, as active substance ([4]; pH 5.4, 25 °C, AS = unmodified acid): 8.581 ± 0.015 gAS dm^−3 | solubility thermodynamic ([4]; pH 5.4, aqueous buffer): 19.281 ± 0.015 mg/mL | Solubility in Phosphate Buffer pH = 7.4, as active substance ([4]; pH 7.4, 25 °C, AS = unmodified acid): 13.149 ± 0.041 gAS dm^−3 | solubility thermodynamic ([4]; pH 7.4, aqueous buffer): 29.55 ± 0.041 mg/mL | solubility thermodynamic ([4]; water): 26.5 ± 0.422 mg/mL | zone of inhibition at 200000 µg/mL (Escherichia coli; Escherichia coli, 24 h, solution transferred to disc 200 mg cm^−3, read-out: Inhibition diameter): 6.2 ± 0.1 mm | zone of inhibition at 400000 µg/mL (Escherichia coli; Escherichia coli, 24 h, solution transferred to disc 400 mg cm^−3, read-out: Inhibition diameter): 7.3 ± 0.3 mm | zone of inhibition at 600000 µg/mL (Escherichia coli; Escherichia coli, 24 h, solution transferred to disc 600 mg cm^−3, read-out: Inhibition diameter): 13.7 ± 0.7 mm | Inhibition diameter (Escherichia coli; [7]): - | Inhibition diameter (Escherichia coli; [8]): - | Inhibition diameter (Escherichia coli; [9]): - | TDTGmax, maximum decomposition temperature ([5]; DTG): 202.4 °C | TTGonset, the onset of the thermal degradation ([5]; TG): 144.2 °C | zone of inhibition at 600000 µg/mL (Micrococcus Luteus; Micrococcus luteus, 24 h, solution transferred to disc 600 mg cm^−3, read-out: Inhibition diameter): 10.8 ± 0.5 mm | zone of inhibition at 800000 µg/mL (Micrococcus Luteus; Micrococcus luteus, 24 h, solution transferred to disc 800 mg cm^−3, read-out: Inhibition diameter): 12.4 ± 0.4 mm | Inhibition diameter (Micrococcus Luteus; [7]): - | Inhibition diameter (Micrococcus Luteus; [8]): - | Inhibition diameter (Micrococcus Luteus; [9]): - | Inhibition diameter (Micrococcus Luteus; [10]): - | Inhibition diameter (Micrococcus Luteus; [11]): - | logP [6]: 1.6 ± 0.034
